# Test results taken from patent publication US10130642B2, “Neprilysin inhibitors” (THERAVANCE BIOPHARMA R&D IP, LLC, priority 2011, dated 2018).
# Molecular target: human NEP (Homo sapiens (Human), UniProt P08473)
# Assay: In vitro enzyme inhibition assay, inhibitor potencies at human NEP
# Settings: not given
# Chain of human NEP (P08473 52-750): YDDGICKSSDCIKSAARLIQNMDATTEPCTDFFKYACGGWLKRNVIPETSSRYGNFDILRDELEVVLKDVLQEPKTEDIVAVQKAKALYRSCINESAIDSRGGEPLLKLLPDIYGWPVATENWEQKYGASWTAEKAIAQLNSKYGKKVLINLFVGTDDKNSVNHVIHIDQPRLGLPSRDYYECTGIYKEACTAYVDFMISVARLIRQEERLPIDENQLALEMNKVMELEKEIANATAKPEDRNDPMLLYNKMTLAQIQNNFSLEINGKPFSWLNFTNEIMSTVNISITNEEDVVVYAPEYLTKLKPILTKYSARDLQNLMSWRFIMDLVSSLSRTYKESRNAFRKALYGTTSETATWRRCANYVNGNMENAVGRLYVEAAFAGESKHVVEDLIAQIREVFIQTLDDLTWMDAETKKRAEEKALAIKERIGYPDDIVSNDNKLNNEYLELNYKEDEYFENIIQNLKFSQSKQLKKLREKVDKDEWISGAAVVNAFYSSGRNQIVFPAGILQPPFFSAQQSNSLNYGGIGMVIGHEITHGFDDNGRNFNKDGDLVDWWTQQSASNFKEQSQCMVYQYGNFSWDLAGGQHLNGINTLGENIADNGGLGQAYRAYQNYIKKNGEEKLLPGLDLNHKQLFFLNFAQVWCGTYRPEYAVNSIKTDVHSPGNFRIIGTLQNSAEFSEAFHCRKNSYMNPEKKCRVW
row,SMILES,Ki
1,"O=C(N[C@H](Cc1ccc(-c2ccccc2)cc1)C[C@H](CO)C(=O)O)c1cnn[nH]1 [Example 4-1, (2R,4S)-5-Biphenyl-4-yl-2-hydroxymethyl-4-[(3H-[1,2,3]triazole-4-carbonyl)-amino]-pentanoic acid]",1.26 to 10 nM
2,"O=C(N[C@H](Cc1ccc(-c2ccccc2)cc1)C[C@@H](CO)C(=O)O)c1nc(O)n[nH]1 [Example 4-14, (2S,4S)-5-Biphenyl-4-yl-2-hydroxymethyl-4-[(5-hydroxy-2H-[1,2,4]triazole-3-carbonyl)-amino]-pentanoic acid]",≤ 1 nM
3,"O=C(N[C@H](Cc1ccc(-c2ccccc2F)cc1)C[C@@H](CO)C(=O)O)c1cnn[nH]1 [Example 4-2, (2S,4S)-5-(2′-Fluorobiphenyl-4-yl)-2-hydroxymethyl-4-[(3H-[1,2,3]triazole-4-carbonyl)-amino]-pentanoic acid]",≤ 1 nM
4,"C[C@@](CO)(C[C@@H](Cc1ccc(-c2ccc(F)cc2)cc1)NC(=O)c1cnn[nH]1)C(=O)O [Example 8-3, (2S,4R)-5-(4′-Fluorobiphenyl-4-yl)-2-hydroxymethyl-2-methyl-4-[(3H-[1,2,3]triazole-4-carbonyl)-amino]-pentanoic acid]",12.6 to 100 nM
5,"O=C(N[C@H](Cc1ccc(-c2ccccc2)cc1)C[C@@H](CO)C(=O)O)c1cc(-c2ccccc2Cl)n[nH]1 [Example 4-27, (2S,4S)-5-Biphenyl-4-yl-4-{[5-(2-chloro-phenyl)-2H-pyrazole-3-carbonyl]-amino}-2-hydroxymethyl-pentanoic acid]",≤ 1 nM
6,"CCCCc1cc(C(=O)N[C@H](Cc2ccc(-c3ccccc3)cc2)C[C@@H](CO)C(=O)O)[nH]n1 [Example 4-28, (2S,4S)-5-Biphenyl-4-yl-4-[(5-butyl-2H-pyrazole-3-carbonyl)-amino]-2-hydroxymethyl-pentanoic acid]",≤ 1 nM
7,"C[C@@](CO)(C[C@@H](Cc1ccc(-c2ccccc2)cc1)NC(=O)c1cc(O)n[nH]1)C(=O)O [Example 6-17, (2S,4R)-5-Biphenyl-4-yl-2-hydroxymethyl-4-[(5-hydroxy-2H-pyrazole-3-carbonyl)-amino]-2-methyl-pentanoic acid]",1.26 to 10 nM
8,"C[C@@](CO)(C[C@@H](Cc1ccc(-c2ccccc2)cc1)NC(=O)c1nc(O)n[nH]1)C(=O)O [Example 6-2, (2S,4R)-5-Biphenyl-4-yl-2-hydroxymethyl-4-[(5-hydroxy-2H-[1,2,4]triazole-3-carbonyl)-amino]-2-methyl-pentanoic acid]",12.6 to 100 nM
9,"O=C(N[C@H](Cc1ccc(-c2ccccc2)cc1)C[C@@H](CO)C(=O)O)c1cc(O)n[nH]1 [Example 4-17, (2S,4S)-5-Biphenyl-4-yl-2-hydroxymethyl-4-[(5-hydroxy-2H-pyrazole-3-carbonyl)-amino]-pentanoic acid]",≤ 1 nM

# Now from value to molecule:
row,Ki,SMILES
1,≤ 1 nM,"CC(C)(c1ccc(-c2ccccc2)cc1)[C@H](C[C@@H](CO)C(=O)O)NC(=O)c1cc(O)no1 [Example 9, (2S,4S)-5-Biphenyl-4-yl-4-[(3-hydroxy-isoxazole-5-carbonyl)-amino]-2-hydroxymethyl-5-methyl-hexanoic Acid]"
2,≤ 1 nM,"CC(C)(c1ccc(-c2ccccc2)cc1)[C@H](C[C@@H](CO)C(=O)O)NC(=O)c1cnn[nH]1 [Example 10-2, (2S,4S)-5-Biphenyl-4-yl-2-hydroxymethyl-5-methyl-4-[(3H-[1,2,3]triazole-4-carbonyl)-amino]-hexanoic acid]"
3,12.6 to 100 nM,"Cc1nc2c(Cl)cc(C(=O)NC(Cc3ccc(-c4ccccc4)cc3)C[C@H](CO)C(=O)O)cc2[nH]1 (stereo partly drawn) [Example 4-38, (R)-5-Biphenyl-4-yl-4-[(7-chloro-2-methyl-3H-benzoimidazole-5-carbonyl)-amino]-2-hydroxymethyl-pentanoic acid]"
4,12.6 to 100 nM,"O=C(N[C@H](Cc1ccc(-c2ccccc2)cc1)C[C@@H](CO)C(=O)O)c1c[nH]c(O)n1 [Example 4-31, (2S,4S)-5-Biphenyl-4-yl-4-[(2-hydroxy-1H-imidazole-4-carbonyl)-amino]-2-hydroxymethyl-pentanoic acid]"
5,≤ 1 nM,"C[C@@](CO)(C[C@@H](Cc1ccc(-c2ccccc2F)cc1)NC(=O)c1c[nH]c(=O)o1)C(=O)O [Example 8-6, (2S,4R)-5-(2′-Fluoro-biphenyl-4-yl)-2-hydroxymethyl-2-methyl-4-[(2-oxo-2,3-dihydro-oxazole-5-carbonyl)-amino]-pentanoic acid]"
6,1.26 to 10 nM,"O=C(NC(Cc1ccc(-c2ccccc2)cc1)C[C@H](CO)C(=O)O)c1cc(Cl)c2nc[nH]c2c1 (stereo partly drawn) [Example 4-36, (R)-5-Biphenyl-4-yl-4-[(7-chloro-3H-benzoimidazole-5-carbonyl)-amino]-2-hydroxymethyl-pentanoic acid]"
7,≤ 1 nM,"C[C@@](CO)(C[C@@H](Cc1ccc(-c2ccccc2)cc1)NC(=O)c1cnc(O)nc1)C(=O)O [Example 6-18, (2S,4R)-5-Biphenyl-4-yl-2-hydroxymethyl-4-[(2-hydroxy-pyrimidine-5-carbonyl)-amino]-2-methyl-pentanoic acid]"
8,≤ 1 nM,"C[C@@](CO)(C[C@@H](Cc1ccc(-c2ccccc2F)cc1)NC(=O)c1cnn[nH]1)C(=O)O [Example 8-2, (2S,4R)-5-(2′-Fluorobiphenyl-4-yl)-2-hydroxymethyl-2-methyl-4-[(3H-[1,2,3]triazole-4-carbonyl)-amino]-pentanoic acid]"
9,1.26 to 10 nM,"O=C(NC(Cc1ccc(-c2ccccc2)cc1)C[C@@H](CO)C(=O)O)c1cnc2nn[nH]c2c1 (stereo partly drawn) [Example 4-43, (S)-5-Biphenyl-4-yl-2-hydroxymethyl-4-[(1H-[1,2,3]triazolo[4,5-b]pyridine-6-carbonyl)-amino]-pentanoic acid]"
10,≤ 1 nM,"O=C(N[C@H](Cc1ccc(-c2cccc(F)c2)cc1)C[C@@H](CO)C(=O)O)c1cc(-c2ccccn2)n[nH]1 [Example 4-30, (2S,4S)-5-(3′-Fluorobiphenyl-4-yl)-2-hydroxymethyl-4-[(5-pyridin-2-yl-2H-pyrazole-3-carbonyl)-amino]-pentanoic acid]"
11,≤ 1 nM,"C[C@@](CO)(C[C@@H](Cc1ccc(-c2ccccc2)cc1)NC(=O)c1cn(O)nn1)C(=O)O [Example 6-4, (2S,4R)-5-Biphenyl-4-yl-2-hydroxymethyl-4-[(1-hydroxy-1H-[1,2,3]triazole-4-carbonyl)-amino]-2-methyl-pentanoic acid]"
12,≤ 1 nM,"O=C(NC(Cc1ccc(-c2ccccc2)cc1)C[C@@H](CO)C(=O)O)c1cc(F)c2nn[nH]c2c1 (stereo partly drawn) [Example 4-33, (S)-5-Biphenyl-4-yl-4-[(7-fluoro-3H-benzotriazole-5-carbonyl)-amino]-2-hydroxymethyl-pentanoic acid]"
13,12.6 to 100 nM,"C[C@](CO)(C[C@@H](Cc1ccc(-c2ccccc2)cc1)NC(=O)c1cnn[nH]1)C(=O)O [Example 6-3, (2R,4R)-5-Biphenyl-4-yl-2-hydroxymethyl-2-methyl-4-[(3H-[1,2,3]triazole-4-carbonyl)-amino]-pentanoic acid]"

# Same assay, conditions: pKi values at human NEP; recombinant human NEP, fluorogenic peptide substrate, 37° C.
row,pKi,SMILES
1,≥9.0,"C[C@@](CO)(C[C@@H](Cc1ccc(-c2cccc(F)c2)cc1)NC(=O)c1cc(C(=O)O)n[nH]1)C(=O)O [Example 7, 5-[(1R,3S)-3-Carboxy-1-(3′-fluorobiphenyl-4-ylmethyl)-4-hydroxy-3-methyl-butylcarbamoyl]-1H-pyrazole-3-carboxylic Acid]"
2,≥9.0,"O=C(N[C@H](Cc1ccc(-c2cccc(F)c2)cc1)C[C@@H](CO)C(=O)O)c1nc(Cl)n[nH]1 [Example 3B, (2S,4S)-4-[(5-Chloro-2H-[1,2,4]triazole-3-carbonyl)amino]-5-(3′-fluorobiphenyl-4-yl)-2-hydroxymethyl-pentanoic acid]"
